Reference: the supplement of paper PMC10307832

How the values were obtained:
Assay in all cases: relative viability (nuclei count vs DMSO), 5 days (fraction); higher = more cells survive
NCI-H1975 = tested on: NCI-H1975
Method in brief: (§1)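 Relative viability was taken as the ratio of nuclei in treated wells to nuclei in vehicle wells. Lung cancer cell lines in 1536-well plates received compounds by pin tool one day after seeding, either one drug alone or a fixed anchor-drug dose plus five library-drug doses (not always all listed) in √10 steps. Nuclei were counted on 4× images after 5 days of treatment, and values are medians of duplicate plates.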

NCI-H1651 = tested on: NCI-H1651
Method in brief: as §1

NCI-H1734 = tested on: NCI-H1734
Method in brief: as §1

EMC-BAC-2 = tested on: EMC-BAC-2
Method in brief: as §1

NCI-H661 = tested on: NCI-H661
Method in brief: as §1

EPLC-272H = tested on: EPLC-272H
Method in brief: as §1

NCI-H1792 = tested on: NCI-H1792
Method in brief: as §1

NCI-H647 = tested on: NCI-H647
Method in brief: as §1

NCI-H1915 = tested on: NCI-H1915
Method in brief: as §1

NCI-H1395 = tested on: NCI-H1395
Method in brief: as §1

RERF-LC-KJ = tested on: RERF-LC-KJ
Method in brief: as §1

201T = tested on: 201T
Method in brief: as §1

NCI-H23 = tested on: NCI-H23
Method in brief: as §1

SK-LU-1 = tested on: SK-LU-1
Method in brief: as §1

NCI-H2023 = tested on: NCI-H2023
Method in brief: as §1

HCC-78 = tested on: HCC-78
Method in brief: as §1

NCI-H2405 = tested on: NCI-H2405
Method in brief: as §1

NCI-H1437 = tested on: NCI-H1437
Method in brief: as §1

LOU-NH91 = tested on: LOU-NH91
Method in brief: as §1

NCI-H1793 = tested on: NCI-H1793
Method in brief: as §1

UMC-11 = tested on: UMC-11
Method in brief: as §1

LCLC-103H = tested on: LCLC-103H
Method in brief: as §1

O=c1[nH]c2ccccc2n1C1CCN(CCCC(c2ccc(F)cc2)c2ccc(F)cc2)CC1 [Pimozide] + Nc1nc2[nH]cc(CCc3ccc(C(=O)N[C@@H](CCC(=O)O)C(=O)O)cc3)c2c(=O)[nH]1 [Pemetrexed] (partner 0.2 µM)
relative viability (NCI-H1975; first compound 0.08 µM): 0.309
relative viability (NCI-H1975; first compound 0.253 µM): 0.261
relative viability (NCI-H1975; first compound 0.8 µM): 0.305
relative viability (NCI-H1975; first compound 2.53 µM): 0.28
relative viability (NCI-H1975; first compound 8 µM): 0.283
relative viability (NCI-H1651; first compound 0.08 µM): 0.603
relative viability (NCI-H1651; first compound 0.253 µM): 0.487
relative viability (NCI-H1651; first compound 0.8 µM): 0.697
relative viability (NCI-H1651; first compound 2.53 µM): 0.562
relative viability (NCI-H1651; first compound 8 µM): 0.566
relative viability (NCI-H1734; first compound 0.08 µM): 0.401
relative viability (NCI-H1734; first compound 0.253 µM): 0.436
relative viability (NCI-H1734; first compound 0.8 µM): 0.401
relative viability (NCI-H1734; first compound 2.53 µM): 0.416
relative viability (NCI-H1734; first compound 8 µM): 0.434
relative viability (EMC-BAC-2; first compound 0.08 µM): 0.464
relative viability (EMC-BAC-2; first compound 0.253 µM): 0.462
relative viability (EMC-BAC-2; first compound 0.8 µM): 0.392
relative viability (EMC-BAC-2; first compound 2.53 µM): 0.428
relative viability (EMC-BAC-2; first compound 8 µM): 0.438
relative viability (NCI-H661; first compound 0.08 µM): 0.914
relative viability (NCI-H661; first compound 0.253 µM): 0.898
relative viability (NCI-H661; first compound 0.8 µM): 0.844
relative viability (NCI-H661; first compound 2.53 µM): 0.877
relative viability (NCI-H661; first compound 8 µM): 0.797
relative viability (EPLC-272H; first compound 0.08 µM): 0.319
relative viability (EPLC-272H; first compound 0.253 µM): 0.285
relative viability (EPLC-272H; first compound 0.8 µM): 0.271
relative viability (EPLC-272H; first compound 2.53 µM): 0.179
relative viability (EPLC-272H; first compound 8 µM): 0.238
relative viability (NCI-H1792; first compound 0.08 µM): 0.822
relative viability (NCI-H1792; first compound 0.253 µM): 0.786
relative viability (NCI-H1792; first compound 0.8 µM): 0.43
relative viability (NCI-H1792; first compound 2.53 µM): 0.727
relative viability (NCI-H1792; first compound 8 µM): 0.356
relative viability (NCI-H647; first compound 0.08 µM): 0.186
relative viability (NCI-H647; first compound 0.253 µM): 0.188
relative viability (NCI-H647; first compound 0.8 µM): 0.175
relative viability (NCI-H647; first compound 2.53 µM): 0.2
relative viability (NCI-H647; first compound 8 µM): 0.128
relative viability (NCI-H1915; first compound 0.08 µM): 0.482
relative viability (NCI-H1915; first compound 0.253 µM): 0.415
relative viability (NCI-H1915; first compound 2.53 µM): 0.448
relative viability (NCI-H1915; first compound 8 µM): 0.423
relative viability (NCI-H1395; first compound 0.08 µM): 0.887
relative viability (NCI-H1395; first compound 0.253 µM): 0.825
relative viability (NCI-H1395; first compound 0.8 µM): 0.822
relative viability (NCI-H1395; first compound 2.53 µM): 0.823
relative viability (NCI-H1395; first compound 8 µM): 0.831
relative viability (RERF-LC-KJ; first compound 0.08 µM): 0.452
relative viability (RERF-LC-KJ; first compound 0.253 µM): 0.47
relative viability (RERF-LC-KJ; first compound 0.8 µM): 0.466
relative viability (RERF-LC-KJ; first compound 2.53 µM): 0.347
relative viability (RERF-LC-KJ; first compound 8 µM): 0.422
relative viability (201T; first compound 0.08 µM): 0.31
relative viability (201T; first compound 0.253 µM): 0.334
relative viability (201T; first compound 0.8 µM): 0.332
relative viability (201T; first compound 2.53 µM): 0.312
relative viability (201T; first compound 8 µM): 0.276
relative viability (NCI-H23; first compound 0.08 µM): 0.64
relative viability (NCI-H23; first compound 0.253 µM): 0.716
relative viability (NCI-H23; first compound 0.8 µM): 0.609
relative viability (NCI-H23; first compound 2.53 µM): 0.59
relative viability (NCI-H23; first compound 8 µM): 0.591
relative viability (SK-LU-1; first compound 0.08 µM): 1.05
relative viability (SK-LU-1; first compound 0.253 µM): 0.991
relative viability (SK-LU-1; first compound 0.8 µM): 0.897
relative viability (SK-LU-1; first compound 2.53 µM): 0.853
relative viability (SK-LU-1; first compound 8 µM): 0.817
relative viability (NCI-H2023; first compound 0.08 µM): 0.215
relative viability (NCI-H2023; first compound 0.253 µM): 0.231
relative viability (NCI-H2023; first compound 0.8 µM): 0.226
relative viability (NCI-H2023; first compound 2.53 µM): 0.179
relative viability (NCI-H2023; first compound 8 µM): 0.164
relative viability (HCC-78; first compound 0.08 µM): 0.911
relative viability (HCC-78; first compound 0.8 µM): 0.91
relative viability (HCC-78; first compound 2.53 µM): 0.872
relative viability (HCC-78; first compound 8 µM): 0.87
relative viability (NCI-H2405; first compound 0.08 µM): 0.968
relative viability (NCI-H2405; first compound 0.253 µM): 1.09
relative viability (NCI-H2405; first compound 0.8 µM): 1.05
relative viability (NCI-H2405; first compound 2.53 µM): 0.989
relative viability (NCI-H2405; first compound 8 µM): 0.88
relative viability (NCI-H1437; first compound 0.08 µM): 0.354
relative viability (NCI-H1437; first compound 0.253 µM): 0.306
relative viability (NCI-H1437; first compound 0.8 µM): 0.274
relative viability (NCI-H1437; first compound 2.53 µM): 0.312
relative viability (NCI-H1437; first compound 8 µM): 0.219
relative viability (LOU-NH91; first compound 0.08 µM): 0.389
relative viability (LOU-NH91; first compound 0.253 µM): 0.474
relative viability (LOU-NH91; first compound 0.8 µM): 0.395
relative viability (LOU-NH91; first compound 2.53 µM): 0.384
relative viability (LOU-NH91; first compound 8 µM): 0.384
relative viability (NCI-H1793; first compound 0.08 µM): 0.807
relative viability (NCI-H1793; first compound 0.253 µM): 0.798
relative viability (NCI-H1793; first compound 0.8 µM): 0.8
relative viability (NCI-H1793; first compound 2.53 µM): 0.829
relative viability (NCI-H1793; first compound 8 µM): 0.676
relative viability (UMC-11; first compound 0.08 µM): 0.82
relative viability (UMC-11; first compound 0.253 µM): 0.681
relative viability (UMC-11; first compound 0.8 µM): 0.748
relative viability (UMC-11; first compound 2.53 µM): 0.772
relative viability (UMC-11; first compound 8 µM): 0.725
relative viability (LCLC-103H; first compound 0.08 µM): 0.435
relative viability (LCLC-103H; first compound 0.253 µM): 0.425
relative viability (LCLC-103H; first compound 0.8 µM): 0.471
relative viability (LCLC-103H; first compound 2.53 µM): 0.385
relative viability (LCLC-103H; first compound 8 µM): 0.468
